As a reminder, the AC50 is the concentration giving half of the maximal activity seen. Usually IC50 stands for the concentration at which inhibition is half-maximal.

Test [1] deals with T1, CAAX prenyl protease 2 (Saccharomyces cerevisiae S288c, UniProt Q03530).
T1 sequence (Q03530 whole entry): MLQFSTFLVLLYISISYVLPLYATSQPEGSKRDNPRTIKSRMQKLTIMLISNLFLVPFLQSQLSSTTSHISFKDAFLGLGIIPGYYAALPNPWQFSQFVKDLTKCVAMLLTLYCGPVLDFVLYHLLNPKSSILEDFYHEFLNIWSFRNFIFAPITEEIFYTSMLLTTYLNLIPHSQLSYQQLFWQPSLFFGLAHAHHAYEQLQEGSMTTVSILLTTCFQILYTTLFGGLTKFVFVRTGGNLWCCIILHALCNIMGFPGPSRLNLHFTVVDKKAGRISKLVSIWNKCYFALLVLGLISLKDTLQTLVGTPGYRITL
In kind it is biochemical.

The target of the next test is CAAX prenyl protease 1 (Saccharomyces cerevisiae S288c, UniProt P47154). The test is described as follows: yeast CAAX protease Ste24 inhibition – biochemical, S. cerevisiae, plate reader, cherry-pick, dose response (AID 488815).
For test [2], the target named is CAAX prenyl protease 2 (Homo sapiens, UniProt Q9Y256). The test is described as follows: inhibition of Ras-converting CAAX protease Rce1 – biochemical, yeast membranes, quenched-peptide fluorescence, cherry-pick, dose response (AID 588849).
The target in test [3] is T2, Tyrosine-protein phosphatase non-receptor type 7 (Homo sapiens, UniProt P35236).
T2 sequence (P35236 whole entry): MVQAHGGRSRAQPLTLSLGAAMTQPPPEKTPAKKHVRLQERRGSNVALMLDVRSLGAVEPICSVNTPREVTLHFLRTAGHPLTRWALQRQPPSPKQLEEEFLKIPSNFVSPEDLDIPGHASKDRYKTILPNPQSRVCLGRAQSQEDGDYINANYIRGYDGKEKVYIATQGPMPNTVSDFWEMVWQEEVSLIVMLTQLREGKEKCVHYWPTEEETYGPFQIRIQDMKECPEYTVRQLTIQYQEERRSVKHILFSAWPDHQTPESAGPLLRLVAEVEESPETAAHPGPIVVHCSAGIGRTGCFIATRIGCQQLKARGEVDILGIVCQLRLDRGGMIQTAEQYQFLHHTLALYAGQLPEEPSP
It is filed as functional.

In test [4] the target is Glyceraldehyde-3-phosphate dehydrogenase (Homo sapiens, UniProt P04406).
Test [5] has as its target T3, Dual specificity protein phosphatase 6 (Rattus norvegicus, UniProt Q64346).
T3 sequence (Q64346 whole entry): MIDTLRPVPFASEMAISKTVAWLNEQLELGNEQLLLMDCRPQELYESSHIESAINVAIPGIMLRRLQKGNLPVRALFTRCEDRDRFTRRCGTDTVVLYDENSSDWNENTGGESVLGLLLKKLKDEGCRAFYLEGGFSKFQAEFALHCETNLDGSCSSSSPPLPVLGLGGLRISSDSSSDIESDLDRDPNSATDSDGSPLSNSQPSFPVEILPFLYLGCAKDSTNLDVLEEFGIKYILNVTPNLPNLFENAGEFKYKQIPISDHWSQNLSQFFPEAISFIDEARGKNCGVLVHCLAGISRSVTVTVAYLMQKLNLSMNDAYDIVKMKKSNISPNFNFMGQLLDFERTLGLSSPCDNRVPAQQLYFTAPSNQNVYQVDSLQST

The target of test [6] is T3, Dual specificity protein phosphatase 6. It is filed as functional.
In another test the test system is Jurkat. The test is described as follows: blockers of NF-kB activation in T cells – Jurkat, luciferase reporter, luminescence, B- and T-cell, dose response (AID 489004).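 Note: NF-kB luciferase reporter Jurkat cells stimulated with PMA plus ionomycin.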 It is filed as functional, cell-based. Conditions: Homo sapiens. A general note: A reporter such as luciferase makes a cellular process visible.
Test [7] in a line: HEK-293T viability loss, compound-treated – cell-based, uHTS hits, cytotoxicity control for B/T-cell NF-kB inhibitor project, dose response (AID 489019).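 Note: IC50 reflects cytotoxicity as loss of cell viability.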 It is filed as functional.
In another test the test system is INS1. The test is described as follows: INS-1E survival protection against cytokine death – cell-based, luminescence, retest, dose response (AID 449756).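 Note: cell death triggered by IL-1 beta plus TNF-alpha plus IFN-gamma mixture; protective hits raise ATP signal compared with cytokine alone wells.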 The note with it: Rattus norvegicus. It is filed as functional.
Another test concerns the target T4, Phospholipase D1 (Homo sapiens, UniProt Q13393).
T4 sequence (Q13393 whole entry): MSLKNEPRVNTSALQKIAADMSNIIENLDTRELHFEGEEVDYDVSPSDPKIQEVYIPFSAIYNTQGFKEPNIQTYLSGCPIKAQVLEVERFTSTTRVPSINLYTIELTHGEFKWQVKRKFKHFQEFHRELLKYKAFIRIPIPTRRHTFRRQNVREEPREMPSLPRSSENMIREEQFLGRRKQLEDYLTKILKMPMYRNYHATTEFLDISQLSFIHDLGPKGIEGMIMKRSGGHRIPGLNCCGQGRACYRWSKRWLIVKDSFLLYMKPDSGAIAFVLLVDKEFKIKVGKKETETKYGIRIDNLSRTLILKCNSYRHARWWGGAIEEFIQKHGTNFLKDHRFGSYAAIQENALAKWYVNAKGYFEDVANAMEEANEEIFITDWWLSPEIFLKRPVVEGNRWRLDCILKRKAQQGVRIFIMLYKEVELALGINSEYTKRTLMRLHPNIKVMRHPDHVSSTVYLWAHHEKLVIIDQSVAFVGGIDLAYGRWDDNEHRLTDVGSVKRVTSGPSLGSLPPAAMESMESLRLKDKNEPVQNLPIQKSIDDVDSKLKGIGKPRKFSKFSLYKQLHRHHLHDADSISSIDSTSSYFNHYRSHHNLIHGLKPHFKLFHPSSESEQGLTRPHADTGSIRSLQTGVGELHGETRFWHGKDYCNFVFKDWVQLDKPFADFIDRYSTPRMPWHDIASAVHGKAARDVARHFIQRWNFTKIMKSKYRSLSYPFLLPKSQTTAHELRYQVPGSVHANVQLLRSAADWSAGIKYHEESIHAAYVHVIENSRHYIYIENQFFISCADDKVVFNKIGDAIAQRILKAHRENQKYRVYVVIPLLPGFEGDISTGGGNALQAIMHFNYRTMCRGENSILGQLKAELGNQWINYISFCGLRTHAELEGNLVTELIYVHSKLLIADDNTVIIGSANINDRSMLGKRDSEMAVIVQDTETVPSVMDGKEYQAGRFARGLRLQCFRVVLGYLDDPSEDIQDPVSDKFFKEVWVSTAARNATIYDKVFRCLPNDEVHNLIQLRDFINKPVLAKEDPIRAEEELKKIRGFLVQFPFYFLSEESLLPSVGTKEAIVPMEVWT
The test is described as follows: cellular phospholipase D1 inhibition IC50 – cell-based, dose response (AID 602151).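 Note: cellular PLD1 assay in Calu-1 cells stimulated with PMA.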 In kind it is functional.

Another test deals with Phospholipase D2 (Homo sapiens, UniProt O14939). Nature of the test: cellular phospholipase D2 inhibition IC50 – cell-based, dose response (AID 602147).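 Note: cellular assay in HEK293 cells overexpressing GFP-tagged PLD2.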 In kind it is functional.
Test [8] relates to A-375. Nature of the test: MITF: Counter assay: A375 proliferation Measured in Cell-Based System Using Plate Reader - 2084-03_Inhibitor_Dose_DryPowder_Activity. [Related pubchem assays (depositor defined):AID488944]. It is filed as functional. The note with it: Homo sapiens.
For test [9], the system named is A-375. The test is described as follows: proliferation inhibition in MITF-low A375 cells – cell-based, cherry-pick samples, set 2, counter-screen for MITF modulator project, dose response (AID 540335). It is filed as functional. The note with it: Homo sapiens.

Active and inactive are the calls of the source.

Chain of CAAX prenyl protease 2 (Homo sapiens, UniProt Q9Y256) (Q9Y256 whole entry): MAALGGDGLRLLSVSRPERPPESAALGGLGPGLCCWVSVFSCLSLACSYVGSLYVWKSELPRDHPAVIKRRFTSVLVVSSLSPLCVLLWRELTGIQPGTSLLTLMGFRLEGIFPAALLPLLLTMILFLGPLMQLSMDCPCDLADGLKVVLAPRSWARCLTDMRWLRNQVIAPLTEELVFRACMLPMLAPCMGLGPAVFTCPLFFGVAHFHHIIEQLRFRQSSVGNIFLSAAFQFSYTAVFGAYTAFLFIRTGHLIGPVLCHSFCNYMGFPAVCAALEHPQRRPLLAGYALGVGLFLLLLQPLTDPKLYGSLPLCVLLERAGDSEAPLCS
Chain of Phospholipase D2 (O14939 whole entry): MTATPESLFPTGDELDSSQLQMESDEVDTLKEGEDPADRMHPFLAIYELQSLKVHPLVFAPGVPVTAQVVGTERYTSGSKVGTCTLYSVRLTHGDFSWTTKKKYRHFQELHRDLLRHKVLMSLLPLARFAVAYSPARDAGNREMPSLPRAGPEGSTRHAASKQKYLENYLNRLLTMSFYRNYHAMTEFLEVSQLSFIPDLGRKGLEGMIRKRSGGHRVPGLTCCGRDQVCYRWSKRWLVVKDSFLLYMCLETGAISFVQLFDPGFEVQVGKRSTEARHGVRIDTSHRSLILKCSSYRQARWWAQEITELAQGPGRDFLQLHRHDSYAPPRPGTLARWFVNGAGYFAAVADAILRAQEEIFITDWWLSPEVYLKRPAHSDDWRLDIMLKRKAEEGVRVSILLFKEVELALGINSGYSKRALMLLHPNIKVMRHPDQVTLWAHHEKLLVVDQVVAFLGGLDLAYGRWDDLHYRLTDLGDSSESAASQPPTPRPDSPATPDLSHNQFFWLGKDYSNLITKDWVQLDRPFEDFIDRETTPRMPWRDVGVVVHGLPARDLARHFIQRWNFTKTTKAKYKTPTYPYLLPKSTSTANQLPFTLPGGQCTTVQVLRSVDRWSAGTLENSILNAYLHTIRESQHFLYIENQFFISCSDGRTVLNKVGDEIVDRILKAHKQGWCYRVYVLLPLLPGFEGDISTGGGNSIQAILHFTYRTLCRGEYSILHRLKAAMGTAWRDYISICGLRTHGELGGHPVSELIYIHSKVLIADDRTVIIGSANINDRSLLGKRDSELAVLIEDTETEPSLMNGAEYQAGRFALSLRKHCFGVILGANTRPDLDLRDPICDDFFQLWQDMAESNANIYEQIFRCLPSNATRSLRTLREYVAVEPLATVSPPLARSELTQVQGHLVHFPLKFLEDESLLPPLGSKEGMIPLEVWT
Chain of Glyceraldehyde-3-phosphate dehydrogenase (P04406 whole entry): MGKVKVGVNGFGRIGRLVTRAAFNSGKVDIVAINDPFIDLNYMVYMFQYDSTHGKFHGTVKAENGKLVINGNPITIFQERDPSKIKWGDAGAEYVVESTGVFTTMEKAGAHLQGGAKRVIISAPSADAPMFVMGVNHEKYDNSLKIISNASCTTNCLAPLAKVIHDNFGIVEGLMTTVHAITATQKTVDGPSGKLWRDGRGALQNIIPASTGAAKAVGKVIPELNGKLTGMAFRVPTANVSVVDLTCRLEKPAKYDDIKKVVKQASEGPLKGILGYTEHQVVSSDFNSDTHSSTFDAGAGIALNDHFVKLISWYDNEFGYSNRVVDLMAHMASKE
Chain of CAAX prenyl protease 1 (P47154 whole entry): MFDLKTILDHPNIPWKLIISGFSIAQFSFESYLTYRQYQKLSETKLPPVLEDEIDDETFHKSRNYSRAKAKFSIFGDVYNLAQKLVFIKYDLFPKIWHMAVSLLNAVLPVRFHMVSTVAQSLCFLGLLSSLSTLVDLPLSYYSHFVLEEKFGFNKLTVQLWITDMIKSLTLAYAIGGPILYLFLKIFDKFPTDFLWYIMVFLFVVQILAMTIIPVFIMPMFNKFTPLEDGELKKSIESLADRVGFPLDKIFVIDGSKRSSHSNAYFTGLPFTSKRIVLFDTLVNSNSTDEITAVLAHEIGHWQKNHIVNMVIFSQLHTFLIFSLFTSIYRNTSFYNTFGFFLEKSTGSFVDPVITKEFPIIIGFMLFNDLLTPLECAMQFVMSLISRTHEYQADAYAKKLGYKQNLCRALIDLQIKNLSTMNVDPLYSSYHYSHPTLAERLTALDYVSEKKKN

Consider `CCOC(=O)c1[nH]c2ccc(OC)cc2c1NC(=O)CN1CCC2(CC1)OCCO2`, for which the AC50 at CAAX prenyl protease 2 [1] was 67.8 µM (active); on CAAX prenyl protease 1 it was 6.79 µM (active); on CAAX prenyl protease 2 [2], 15.4 µM (active).
Turning to `Cc1ccc(-n2c(=O)[nH]c(=O)n([C@H](C(N)=O)C(C)C)c2=O)cc1`, the IC50 in test [3] was > 100 µM (not active); in test [4] it was > 100 µM (not active); in test [5], > 100 µM (inactive); in test [6], > 100 µM (inactive).
With `Cc1cc(Cl)c(S(=O)(=O)N2CCN(c3ccc(F)cc3)CC2)cc1OCC(=O)NC1CCCCC1`, the IC50 (in the test on Jurkat; in test [7]) was > 80 µM (inactive) each time. Further, in the test on INS1, the AC50 was 4.82 µM (active).
`O=C(NCCN1CCC2(CC1)C(=O)NCN2c1ccccc1)c1cccc(F)n1`: the IC50 at Phospholipase D1 was 12 µM (active); at Phospholipase D2 it was 4.46 µM (active).
Consider `C[C@@H](CN1CCC(n2c(=O)[nH]c3ccccc32)CC1)NC(=O)c1ccc(Cl)c(Cl)c1`, for which the IC50 is 0.023 µM (active) on Phospholipase D1 and 0.428 µM (active) on Phospholipase D2.
`O=C(Nc1ccc2nn(-c3ccccc3)nc2c1)c1ccco1`: the AC50 in the test on A-375 [8] and with A-375 [9] was > 35 µM (active) throughout.
For `O=C(Nc1ccc(Cl)cc1)OCc1ccccn1`, the AC50 with A-375 [8] and in the test on A-375 [9] was > 35 µM (active) throughout.
As to `O=S(=O)(O)c1cc2oc(-c3ccccc3)nc2c2ccccc12`, the AC50 at CAAX prenyl protease 2 [2] is 1.35 µM (active).

The values are drawn from ChEMBL document CHEMBL1201862, “PubChem BioAssay data set” (2004).
